From US5906922A, “Delivery of nucleic acids” (Commonwealth Scientific and Industrial Research Organisation, priority 1994, dated 1999)
Where two headings read alike, the source gives them in different places. Where a SMILES comes first, the peptide text is derived from it. The star is where a group is joined. NHC(CH2OLauroyl)3 = CCCCCCCCCCCC(=O)OCC(COC(=O)CCCCCCCCCCC)(COC(=O)CCCCCCCCCCC)N*

What was measured:
[1] = tested on: PC3; assay: Transfection of PC3 cells; assay type: cell-based, human; conditions: PC3, FIG. 22a
Excerpt: (§1) Increasing the length of the linker portion of peptide/fatty acyl conjugates dramatically improves their transfection properties both in overall levels of reporter gene expression and also in the proportion of cells transfected. It is particularly noticable that peak levels of transfection are achieved using these reagents at a relatively low level of toxicity. […] This improved capacity of conjugates with longer linkers to promote transfection appears to be independent of cell type.

[2] = tested on: Jurkat T cell line; assay: Transfection of Jurkat cells; assay type: cell-based, Human; conditions: FIG. 22b
Excerpt: as §1

[3] = tested on: CHO cells; assay: Oligonucleotide transfection (18-mer fluoresceinated phosphorothioate), CHO; assay type: cell-based, Chinese Hamster; conditions: 3 hours
Experimental: (§2) An 18-mer 5'-fluoresceinated phosphorothioate oligonucleotide was transfected into CHO cells. A comparison was made between the ability of K3C7ATL3, K3ATL3 and no-agent, to transfect the oligonucleotide into the cells. The oligonucleotide was serially diluted from 121.2 μM nucleotide, to 60.6 and 30.3 μM nucleotide. The test lipopeptides were serially diluted from 84 μM , to 42 and 21 μM. These dilutions were combined in a 3×3 matrix resulting in concentrations half that described. That is, the top dilution of oligonucleotide became 60.6 μM nucleotide (3.37 μM 18-mer oligonucleotide) and lipopeptide 42 μM. The mix was allowed to incubate for 10 min at room temperature and then overlayed on CHO cells (seeded at 1×10^4 /well the previous day). washed free of serum with DDME, in a total volume of 100 μl. Wells receiving mix with no test agent had the three different concentrations of oligonucleotide overlayed under the same conditions.
(§3) After 3 hours of incubation under standard conditions of 37° C. and 5% CO2, the mix was removed and replaced with 50 μl of DDME. The cells were viewed live under the confocal microscope. The level of fluorescence was so high that the pinhole aperture for the LASER on the BioRad MRC 500 confocal microscope, was shut down to minimum. All images were then collected on the same settings for a quantitative comparison.
After confocal analysis, 100 μl of EMEM+10% FCS was added back to the wells and cells were incubated under standard conditions overnight. Cells were re-examined for fluorescence.

[4] = in vitro; assay type: cell-based, Chinese Hamster; conditions: hamster, cho cells
Experimental: as §2, §3

[5] = Electron microscopy of formulated and unformulated compounds; assay type: physicochemical; conditions: rotary shadowed
Experimental: Solutions of formulated and unformulated compounds were analysed for potential membrane-like structure. In separate experiments the following samples were analysed:
a: Negatively stained samples of formulated compounds K3ATP2:DOPE, DOPE and the unformulated compounds K3C7ATL3 and Lipofectamine.
b: Rotary shadowed samples of K3C7ATL3 and Lipofectamine mixed with two ratios of nucleotide (plasmid).
Stock samples of liposomes at 2 mM, were diluted 1 in 10 with filtered distilled water, and mixed 1:1 with filtered negative stain (Ammonium Molybdate 2%, pH 6.5) and spread onto carbon-formvar coated copper/rhodium 200 mesh electron microscope grids, and examined in a Jeol JEM 100CX electron microscope at 60 kV at magnifications of between 33 k and 100 k.
Ratios of 0.69, and 0.25, of liposome:1 mole DNA nucleotides were diluted in water and mixed for 10 min at room temperature, spread onto carbon-formvar coated grids and rotary metal-shadowed with platinum-palladium (60:40) evaporated at an angle of 7° and examined in the electron microscope at 60 kV at magnifications between 26 k and 66 k.

[6] = tested on: cells; assay: β-gal reporter transfection, "y" linker non-standard amino acids; assay type: cell-based; conditions: K3 "y" TL3 compounds
Experimental: Peptide/fatty acyl conjugates were synthesized using the non-standard amino acids amino butyric (C3), amino caproic (C5) and amino caprylic (C7) acids as the linker groups, a tri-lysine nucleic acid binding domain and laurate for the three fatty acyl groups. In these new conjugates the DNA binding and tris/fatty acyl moieties were separated by an extra 3, 5 and 7 carbon bond lengths respectively when compared with the prototype molecule. These compounds were then tested in the standard manner described above to determine their relative capacity to transfect cells.
K3 "y" TL3 compounds, where y=C3, C5, C7, A, L, G were compared for transfection efficiency to each other and the commercial agent Lipofectamine using the standard β-gal reporter gene system described above.

[7] = tested on: Cos 1 cells; assay: β-gal microtitre plate transfection assay, Cos 1; assay type: cell-based, African Green Monkey
Procedure, shortened: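 Cos 1 cells were transfected with β-galactosidase plasmids (mouse PGK or SV40 early promoter) across varied lipid/DNA ratios in microtitre format. The lipid/DNA ratio giving maximal expression was recorded. Viability was measured with alamar blue or MTS, where higher OD means greater viability.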

[8] = tested on: CHO cells; assay: β-gal microtitre plate transfection assay, CHO; assay type: cell-based, Chinese Hamster; conditions: Table 3, CHO
Excerpt: For experiment "c", a plasmid pPGKlaczNLS encoding β-galactosidase under the control of the mouse PGK promoter (kind gift from G.Hannan) or pSVGAL which utilises the SV40 early promoter (Sleigh, M. J. and Lockett, T. J. (1985). EMBO J. 4:3831-3837),was transfected. This experiment and assay were modified from Feigner et al J. Biol Chem. 269(4) 2550-2561 1994. This protocol allows the simultaneous assessment of 72 different combinations and concentrations of DNA and test agent in a microtitre tray. […] Cytotoxicity was assessed using alamar blue, and a sample graph is shown for experiment a.
Each of these compounds was tested for transfection ability and cytotoxicity on standard cell lines using standard conditions as described above.
(§4) The ratio of [lipid]/[DNA] at which that maximum was achieved is shown in brackets for the two different cell types in the following order; (Cos 1) (CHO). Experiments shown were carried out in Cos 1 cells, as described above. Viability was measured with the dye alamar blue . # Denotes compounds tested in a separate experiment. * Viability in this experiment was determined with MTS. OD is a measure of relative viability of the cells exposed to the different agents, and as with alamar blue, a higher value indicates greater cell viability.

[9] = tested on: Cos 1 cells; assay type: cell-based, African Green Monkey
Procedure, shortened: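 Relative viability of Cos 1 cells exposed to lipid/DNA agents was read as MTS optical density; higher OD means greater viability. Some points came from separate experiments.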

[10] = tested on: Cos 1 cells; assay type: cell-based, African Green Monkey; remark: listed apart in the source
Procedure, shortened: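 Cytotoxicity of transfection agents (lipid/DNA combinations, β-galactosidase plasmid under PGK or SV40 early promoter) assessed in parallel with transfection. Viability read with alamar blue or, in some runs, MTS OD; higher signal means greater relative viability.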

[11] = tested on: CHO cells; assay type: cell-based, Chinese Hamster
Experimental: (LEGEND--FIGS. 7, 8 and 9; none; no agent used with plasmid DNA, rb/blank; reagent blank, number following description of compound indicates no. μl of 2 mM stock (diluted with water). 7b: 100% cell survival was taken from dishes which were "mock transfected" with no DNA or transfection agent. 0% viability was assayed in the absence of cells. Viability was assessed using the dye alamar blue.)
Relative levels of cytotoxicity caused by the different agents were compared during the experiment using the dye "Alamar Blue" (Alamar, Sacramento Calif.).
as §4

[12] = tested on: Hela cells; assay: β-gal plate transfection assay, Hela; assay type: cell-based, Human; conditions: 48 hours
Experimental: (§5) Hela cells were seeded in place of Cosl or CHO cells in DME+10% FCS at a density of 2×10^4 /well and transfected with pPGKlaczNLS as described above. At 48 hours, toxicity was determined by alamar blue and the cells processed for the β-gal assay.

[13] = tested on: leg muscle; assay: In vivo transfection (pGFP-N1, intramuscular); set-up: species or system hairless mouse; conditions: 10 μg pGFP-N1, 24 hours
Experimental: The plasmid pGFP-N1 (Clontech) encoding the Green Fluorescent Protein, was diluted 10 μg (in 10 μl) into 20 μl 5% dextrose in water and then combined with 2.1 μl of 10 mM K3ATL3 (10% DMSO) in 27.9 μl of 5% dextrose in water. After 10 min incubation at room temperature the mixture was injected into the leg muscle of a hairless mouse. The mouse was sacrificed after 24 hours and the muscle snap frozen on dry ice. Frozen sections of the tissue were made and analysed under the confocal microscope for fluorescence.

[14] = tested on: cells; assay: β-gal plate assay of unformulated mixtures of lipopeptides; assay type: cell-based; conditions: previously determined
Experimental: The optimal level of transfection achieved using the compound K3ATL3 had been previously determined as requiring ^- 5 μM K3ATL3. K3ATL3 was mixed with each of K3ATL1, K3ATL2, K3ATM3, K3ATP3 and K3ATC3 to give a total concentration of lipid of 5 μM in 100 μl at ratios of 0:5, 1:4, 2:3, 3:2, 4:1 and 5:0. K3ATM3 was similarly mixed with K3ATM1, K3ATM2 and K3ATP3. Each of the lipid mixtures was combined with a constant amount of pSVGAL DNA 0.5 μg/well and transfection allowed to proceed normally.
This was further tested by making a 4:1 molar mix of the two lipopeptides K3ATL3 and K3ATM3 and testing them in a standard plate assay which involved doubling dilutions of both the lipopeptide and DNA concentration. This was compared to expression achieved with using the pure compound K3ATL3 under the same conditions.

[15] = tested on: Hela cells
Experimental: as §5

[16] = [nucleotide] 15.15 μM, [test agent] 10.5 μM
[17] = [nucleotide] 15.15 μM, [test agent] 21 μM
[18] = [nucleotide] 15.15 μM, [test agent] 42 μM
[19] = [nucleotide] 30.3 μM, [test agent] 10.5 μM, *less strongly fluorescing for K3ATL3
[20] = [nucleotide] 30.3 μM, [test agent] 21 μM
[21] = [nucleotide] 30.3 μM, [test agent] 42 μM
[22] = [nucleotide] 60.6 μM, [test agent] 10.5 μM, *less strongly fluorescing for K3ATL3
[23] = [nucleotide] 60.6 μM, [test agent] 21 μM
[24] = [nucleotide] 60.6 μM, [test agent] 42 μM

Row | Structure (SMILES) | % cells fluorescing [3, 16] [%] | % cells fluorescing [3, 17] [%] | % cells fluorescing [3, 18] [%] | % cells fluorescing [3, 19] [%] | % cells fluorescing [3, 20] [%] | % cells fluorescing [3, 21] [%] | % cells fluorescing [3, 22] [%] | % cells fluorescing [3, 23] [%] | % cells fluorescing [3, 24] [%] | cytotoxicity at 3 h, 42 µM [4] [%] | transfection efficiency compared to Lipofectamine [6] | also measured
1 | CCCCCCCCCCCC(=O)OCC(COC(=O)CCCCCCCCCCC)(COC(=O)CCCCCCCCCCC)NC(=O)CCCCCCCNC(=O)[C@H](CCCCN)NC(=O)[C@H](CCCCN)NC(=O)[C@@H](N)CCCCN [K3C7TL3] | 100 | 100 | 100 | 100 | 100 | 100 | 100 | 100 | 100 | > 90 | more efficient at transfection than Lipofectamine | transfection compared to lipofectamine [1]: more effective transfection reagent than lipofectamine; transfection compared to lipofectamine [2]: more effective transfection reagent than lipofectamine; DNA incorporation ([5]; lipopeptide : nucleotide ratio 0.69 (optimal)): most of the DNA was incorporated into collections of liposomes; DNA free in solution ([5]; ratio 0.25:1 (suboptimal)): a large amount of DNA was free in the solution; transfection efficiency compared to standard single amino acid linker [6]: dramatically more efficient than compounds using the standard single amino acid linker
2 | CCCCCCCCCCCC(=O)OCC(COC(=O)CCCCCCCCCCC)(COC(=O)CCCCCCCCCCC)NC(=O)[C@H](C)NC(=O)[C@H](CCCCN)NC(=O)[C@H](CCCCN)NC(=O)[C@@H](N)CCCCN [K3ATL3] (H-KKKA-{NHC(CH2OLauroyl)3}) | 100 | 100 | 100 | 100 | 100 | 100 | 100 | 100 | 100 | > 90 | more efficient at transfection than Lipofectamine | transfection, linkers A, L and G compared ([7]; "y" linker experiment c, Cos 1, trilysine trilaurate): superior in achieving transfection; ratio [lipid]/[DNA] at which maximum was achieved ([7]; Table 2, Cos 1): 1.39; units β-gal ([7]; Table 2, Cos 1, highest reading of 72 conditions): 4.95 × 10^-4 units; β-gal (Cos 1) ([7]; Table 3, Cos 1, # tested in a separate experiment): 4.95 × 10^-4; β-gal (Cos 1) ([7]; Table 3, Cos 1, highest reading of 72 conditions): 3.02 × 10^-4; ratio [lipid]/[DNA] at which maximum was achieved [8]: .69; β-gal (CHO) ([8]; highest reading of 72 conditions): 7.89 × 10^-4; MTS OD490-655 [9]: 1.363; Viability (Cos 1) [9]: 1.36; Viability (Cos 1) [10]: 0.095; Viability (CHO) [11]: 0.027; transfection ability, chain length C10 to C16 [12]: peak transfection efficiency at C12; GFP fluorescence in motor end-plates [13]: very strong fluorescence was seen in the motor end-plates; GFP fluorescence in muscle cells [13]: Punctate fluorescence was observed in the cytoplasm of muscle cells; concentration required for optimal transfection [14]: ~5 µM; cell viability [15]: peak level of cell viability
